Our source for the TGI and GI50 values is PubChem BioAssay (NCI).

Test in all cases: NCI-60 cell line screen, 48 h
Test [1] relates to A549 NSCLC.
The test system of test [2] is BT-549 breast.
The subject of test [3] is COLO 205 colon.
Test [4] relates to HCT-116 colon.
Test [5] concerns HS 578T breast.
For test [6], the system named is MDA-N.
In test [7] the test system is MOLT-4 leukemia.
The subject of test [8] is SNB-19 CNS.
The subject of test [9] is UACC-257 melanoma.
For test [10], the system named is UACC-62 melanoma.
Test [11] deals with UO-31 renal.

Where “and” joins values, the source holds several entries; their conditions need not be identical. Identical values can stand only once.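 Where inhibition never reached the appropriate level, the endpoint shown equals the highest concentration tested. Otherwise, values were interpolated linearly from a five-concentration, 48-hour dose response in 96-well plates. GI50 = concentration required for 50% inhibition of growth. Definition used: TGI = concentration required for complete inhibition of growth.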 Where only a bound is given, the exact number is not on record here.

Take `O=C(Cc1ccccc1)Nn1c(-c2ccccc2)nc2ccccc2c1=O`: the TGI in test [1], in test [2], in [3], in test [4], in [5] and in [6] was greater than 100 µM throughout. Further, the TGI in test [7], in test [8], in test [9], in [10] and in test [11] was greater than 100 µM throughout.

Take `Cc1noc(NC2=CC(=O)C(=O)c3ccccc32)c1C`: the TGI is 55.3 µM in [1]; 50.2 µM in test [2]; greater than 100 µM in [3]; greater than 100 µM in [4]; greater than 100 µM in test [5]; 1.57 µM in test [6]. In addition, the TGI was 47.4 µM in test [7]; greater than 100 µM in [8]; 64 µM in test [9]; 22.9 µM in test [10]; greater than 100 µM in test [11].

Turning to `CCOC(=O)C(NC(=O)c1ccccc1)(N1CCOCC1)C(F)(F)F` (stereo not given), the TGI in [1], in [2], in test [3], in [4], in [5] and in [6] was greater than 100 µM in each case. The TGI in test [7], in [8], in [9], in test [10] and in [11] was greater than 100 µM each time.

For `O=C(O)Cc1ccc2[nH]c(O)c(C3=Nc4ccccc4C3=O)c2c1`, the TGI was greater than 100 µM in test [1]; greater than 100 µM in test [2]; 92.1 µM in test [3]; 68.5 µM in test [4]; 77.5 µM in [5]; greater than 100 µM in [6]. The TGI in test [7] is greater than 100 µM; in test [8], greater than 100 µM; in test [9], greater than 100 µM; in test [10], 85.7 µM; in [11] it was greater than 100 µM.

As to `O=C1c2cc(Cl)ccc2NC(=NCCCl)C2CSCN12` (stereo not given), the TGI in test [1], in test [2], in test [3], in test [4], in test [5] and in [6] was greater than 100 µM each time. The TGI in test [7], in test [8], in test [9], in [10] and in [11] was greater than 100 µM each time.

On to `O=S(=O)(/N=C(\NO)Nc1ccc(Cl)cc1)c1cccc2nsnc12`, for which the TGI in test [1] is greater than 100 µM; in test [2], 83.9 µM; in [3] it was greater than 100 µM; in test [4], 85.4 µM; in test [5], 85.6 µM; in test [6], 79 µM. For the same molecule, the TGI in test [7] was greater than 100 µM; in [8], greater than 100 µM; in test [9], greater than 100 µM; in test [10], 53.1 µM; in [11], greater than 100 µM.

Take `COc1ccc(C2C3COc4ccccc4C3=NN2c2ccccc2)cc1` (stereo not given): the TGI in test [1], in test [2], in test [3], in test [4], in test [5] and in test [6] was greater than 100 µM throughout. For the same molecule, the TGI in test [7], in test [8], in test [9], in [10] and in test [11] was greater than 100 µM each time.

On to `COc1ccc(N2C=Nn3c(nc4sc5c(c4c3=O)CCCC5)C2)cc1`, for which the TGI in test [1] was greater than 100 µM; in test [2] it was greater than 100 µM; in test [3], greater than 100 µM; in [4], greater than 100 µM; in test [5], 9.6 µM; in test [6], greater than 100 µM. Besides, the TGI in [7], in [8], in test [9], in test [10] and in [11] was greater than 100 µM throughout.

In the case of `Cc1csc(/N=C\c2c(O)c3ccccc3oc2=O)n1`, the TGI in test [1] is greater than 100 µM; in test [2], greater than 100 µM; in test [3] it was greater than 100 µM; in test [4] it was greater than 100 µM; in [5] it was 94.5 µM; in test [6], greater than 100 µM. The TGI in [7] is greater than 100 µM; in test [8] it was greater than 100 µM; in [9], greater than 100 µM; in test [10], greater than 100 µM; in [11], 75.9 µM.

`CCCCCCCCCCCCCCCCOC[C@@H](COC(c1ccccc1)(c1ccccc1)c1ccccc1)O[P+](=S)OC` (stereo not given in full): the TGI in test [1] was 21 µM; in [2], 16.7 µM; in test [3] it was 38.6 µM; in [4], 14.1 µM; in test [5] it was 82.6 µM; in [6], 5.53 µM. Further, the TGI in [7] was determined as 53.1 µM; in test [8], 21.3 µM; in test [9] it was 26.5 µM; in [10], 14.5 µM; in [11] it was 30.1 µM.

For the molecule `CCCCON1C[C@H](OC(C)=O)C(OC(C)=O)[C@H](OC(C)=O)C1` (stereo not given in full), the TGI in test [1], in [2], in test [3], in test [4], in test [5] and in test [6] was greater than 100 µM in each case. For the same molecule, the TGI in test [7], in test [8], in [9], in test [10] and in test [11] was greater than 100 µM in each case.

Turning to `O=c1[nH]nc(Cc2ccccc2)n1CCO`, the TGI in test [1], in test [2], in test [3], in test [4], in test [5] and in test [6] was greater than 100 µM throughout. Further, the TGI in test [7], in [8], in [9], in test [10] and in test [11] was greater than 100 µM in each case.

Take `Nc1ccc(C(=O)c2cn(CCN3CCOCC3)c3ccccc23)c2ccccc12`: the TGI in [1] is greater than 100 µM; in test [2], 58.3 µM; in [3] it was 60.6 µM; in test [4], greater than 100 µM; in test [5] it was greater than 100 µM; in test [6], greater than 100 µM. Also, the TGI in test [7] is 52.5 µM; in test [8], greater than 100 µM; in [9], greater than 100 µM; in test [10] it was greater than 100 µM; in test [11] it was greater than 100 µM.

In the case of `CC(=O)OC[C@@H](OC(C)=O)[C@H](OC(C)=O)[C@@H]1OC(C)(C)O[C@@H]1C1SCCCS1`, the TGI in [1], in test [2], in test [3], in [4], in [5] and in [6] was greater than 100 µM each time. Besides, the TGI in [7], in [8], in test [9], in [10] and in test [11] was greater than 100 µM throughout.

Take `O=[N+]([O-])c1cc2c(cc1/C=N/n1c(CO)nc3ccccc31)OCO2`: the TGI in [1], in test [2], in [3], in [4], in test [5] and in [6] was greater than 100 µM each time. Moreover, the TGI in [7], in test [8], in test [9], in [10] and in [11] was greater than 100 µM each time.

On to `CCOC(=O)CC(=O)Nc1cccc2[nH]cnc12`, for which the TGI in [1], in test [2], in test [3], in test [4], in test [5] and in test [6] was greater than 100 µM throughout. Moreover, the TGI in test [7], in test [8], in test [9], in test [10] and in [11] was greater than 100 µM throughout.

For the molecule `O=[N+]([O-])c1ccc(C=NCC2CCCN3CCCCC23)cc1` (stereo not given), the TGI in test [1], in test [2], in test [3], in test [4], in test [5] and in [6] was greater than 100 µM throughout. For the same molecule, the TGI in test [7], in [8], in [9], in test [10] and in test [11] was greater than 100 µM each time.

Turning to `Cc1ccc(NC(=O)CSc2nc(=O)[nH]c3nc[nH]c23)cc1`, the TGI in test [1], in test [2], in [3], in test [4], in test [5] and in test [6] was greater than 100 µM in each case. Further, the TGI in test [7], in test [8], in test [9], in [10] and in test [11] was greater than 100 µM throughout.

Take `C/C=C/C1OC(O)(C(C)C(O)[C@H](C)C2OC(=O)/C(OC)=C/C(C)=C/[C@@H](C)[C@@H](O)[C@@H](C)C(O)C(C)C/C(C)=C/C=C/C2OC)C[C@@H](OC2CC(O)C(OC(N)=O)C(C)O2)C1C` (stereo not given in full): the TGI turned out to be 13.3 µM in [1]; 12 µM in test [2]; 1.27 µM in [3]; 1.42 µM in test [4]; 27.1 µM in test [5]; 1.11 µM in [6]. For the same molecule, the TGI in test [7] was less than 0.01 µM; in test [8] it was 10.5 µM; in [9] it was less than 0.01 µM; in test [10], less than 0.01 µM; in [11] it was 13.8 µM.

With `COc1ccc(C2SCC(=O)N2NC(=O)c2ccc(NC(C)=O)cc2)cc1` (stereo not given), the TGI in test [1], in [2], in test [3], in test [4], in [5] and in [6] was greater than 100 µM each time. For the same molecule, the TGI in test [7], in test [8], in test [9], in [10] and in test [11] was greater than 100 µM throughout.

`CC1OC(OC2C(OC(=O)[C@]34CCC(C)(C)C[C@H]3C3=CC[C@@H]5[C@@]6(C)CC[C@H](OC7OC(C(=O)O)C(O)C(OC8OCC(O)C(O)C8O)C7O)C(C)(C)[C@@H]6CC[C@@]5(C)[C@]3(C)CC4)OCC(O)C2O)C(O)C(OC2OCC(O)C(O)C2O)C1OC1OCC(O)C(OC2OCC(O)C(O)C2O)C1O` (stereo not given in full): the GI50 in test [1] is 5.06 µM and 14.3 µM; in test [2], 9.13 µM and 20.3 µM; in test [3], 1.8 µM and 7.67 µM; in test [4] it was 8.78 µM and 22.9 µM; in test [6] it was 7.14 µM and 16.4 µM; in [9], 7.06 µM and 16.6 µM. Also, the GI50 in test [11] was 2.12 µM and 9 µM. In addition, the TGI was 16.9 µM and 28.4 µM in [1]; 25.6 µM and 46.8 µM in test [2]; 3.63 µM and 20.4 µM in test [3]; 62.5 µM and > 100 µM in test [4]; 37.9 µM and 62.4 µM in [5]; 19.8 µM and 31.8 µM in test [6]. Further, the TGI in test [7] is 25 µM and 49.8 µM; in [8], 23.2 µM and 44.2 µM; in test [9], 20.2 µM and 32.5 µM; in test [10] it was 36.1 µM and 58.1 µM; in test [11], 4.99 µM and 21.1 µM.

Regarding `COC(C)(C)C1(O)CCC(C)CC1=O` (stereo not given), the TGI in test [1], in test [2], in test [3], in test [4], in test [5] and in test [6] was greater than 100 µM each time. Besides, the TGI in test [7], in test [8], in test [9], in [10] and in [11] was greater than 100 µM in each case.

With `CN(/N=C/c1ccnc2ccccc12)c1ccc(Cl)cc1[N+](=O)[O-]`, the TGI was greater than 100 µM in test [1]; greater than 100 µM in test [2]; greater than 100 µM in [3]; greater than 100 µM in test [4]; 52.2 µM in test [5]; greater than 100 µM in [6]. Further, the TGI in test [7], in test [8], in test [9], in [10] and in test [11] was greater than 100 µM in each case.
